# Measurements reported in ChEMBL document CHEMBL1128593, “Chemistry and antimicrobial activity of caryoynencins analogs” (1995).
# Key:
# Staphylococcus aureus [1] = experiment: Antimicrobial activity of the Compound was tested for minimum inhibitory concentration against Staphylococcus aureus 535 (MRSA); type: functional
# Shigella flexneri [2] = experiment: Antimicrobial activity of the Compound was tested for minimum inhibitory concentration against Shigella flexneri IID642; type: functional
# Bacillus subtilis = experiment: Antimicrobial activity of the Compound was tested for minimum inhibitory concentration against Bacillus subtilis ATCC 6633; type: functional
# Pseudomonas aeruginosa [3] = experiment: Antimicrobial activity of the Compound was tested for minimum inhibitory concentration against Pseudomonas aeruginosa 1001; type: functional
# Pseudomonas aeruginosa [4] = experiment: Antimicrobial activity of the Compound was tested for minimum inhibitory concentration against Pseudomonas aeruginosa N07; type: functional
# Trichophyton benhamiae [5] = experiment: Antimicrobial activity of the Compound was tested for minimum inhibitory concentration against Trichophyton mentagrophytes; type: functional, Arthroderma benhamiae
# Enterococcus faecalis = experiment: Antimicrobial activity of the Compound was tested for minimum inhibitory concentration against Enterococcus faecalis 681; type: functional
# Nannizzia gypsea = experiment: Antimicrobial activity of the Compound was tested for minimum inhibitory concentration against Microsporum gypseum 11268; type: functional
# Aspergillus fumigatus = experiment: Antimicrobial activity of the Compound was tested for minimum inhibitory concentration against Aspergillus fumigatus 10569; type: functional
# Salmonella enteritidis = experiment: Antimicrobial activity of the Compound was tested for minimum inhibitory concentration against Salmonella enteritidis; type: functional, Salmonella enterica subsp. enterica serovar Enteritidis; conditions: Salmonella enterica
# Trichophyton benhamiae [6] = experiment: Antimicrobial activity of the Compound was tested for minimum inhibitory concentration against Trichophyton mentagrophytes SC; type: functional, Arthroderma benhamiae
# Klebsiella pneumoniae [7] = experiment: Antimicrobial activity of the Compound was tested for minimum inhibitory concentration against Klebsiella pneumoniae 846(R); type: functional
# [8] = test system: Trichophyton interdigitale; experiment: Antimicrobial activity of the Compound was tested for minimum inhibitory concentration against Trichophyton interdigitale; type: functional
# Candida albicans [9] = experiment: Antimicrobial activity of the Compound was tested for minimum inhibitory concentration against Candida albicans; type: functional
# Escherichia coli [10] = experiment: Antimicrobial activity of the Compound was tested for minimum inhibitory concentration against Escherichia coli 609; type: functional
# Enterobacter cloacae = experiment: Antimicrobial activity of the Compound was tested for minimum inhibitory concentration against Enterobacter cloacae 963; type: functional
# Cryptococcus neoformans = experiment: Antimicrobial activity of the Compound was tested for minimum inhibitory concentration against Cryptococcus neoformans 58063; type: functional
# Trichophyton rubrum [11] = experiment: Antimicrobial activity of the Compound was tested for minimum inhibitory concentration against Trichophyton rubrum; type: functional
# Staphylococcus aureus [12] = experiment: Antimicrobial activity of the Compound was tested for minimum inhibitory concentration against Staphylococcus aureus 209P; type: functional
# Escherichia coli [13] = experiment: Antimicrobial activity of the Compound was tested for minimum inhibitory concentration against Escherichia coli NIHJ; type: functional
# Proteus vulgaris = experiment: Antimicrobial activity of the Compound was tested for minimum inhibitory concentration against Proteus vulgaris 1420; type: functional
# Serratia marcescens = experiment: Antimicrobial activity of the Compound was tested for minimum inhibitory concentration against Serratia marcescens 1184; type: functional
# Candida albicans [14] = experiment: Antimicrobial activity of the Compound was tested for minimum inhibitory concentration against Candida albicans SC; type: functional
# Staphylococcus aureus [15] = experiment: Antimicrobial activity of the Compound was tested for minimum inhibitory concentration against Staphylococcus aureus 56R; type: functional
# Mucor mucedo = experiment: Antimicrobial activity of the Compound was tested for minimum inhibitory concentration against Mucor mucedo 14358; type: functional
# Trichophyton rubrum [16] = experiment: Antimicrobial activity of the Compound was tested for minimum inhibitory concentration against Trichophyton rubrum SC; type: functional
# Klebsiella pneumoniae [17] = experiment: Antimicrobial activity of the Compound was tested for minimum inhibitory concentration against Klebsiella pneumoniae 806; type: functional
# Shigella flexneri [18] = experiment: Antimicrobial activity of the Compound was tested for minimum inhibitory concentration against Shigella flexneriII D642; type: functional
SMILES,MIC (Staphylococcus aureus [1]) [µg/mL],MIC (Bacillus subtilis) [µg/mL],MIC (Pseudomonas aeruginosa [3]) [µg/mL],MIC (Pseudomonas aeruginosa [4]) [µg/mL],MIC (Trichophyton benhamiae [5]) [µg/mL],MIC (Enterococcus faecalis) [µg/mL],MIC (Salmonella enteritidis) [µg/mL],MIC (Klebsiella pneumoniae [7]) [µg/mL],MIC [8] [µg/mL],MIC (Candida albicans [9]) [µg/mL],MIC (Escherichia coli [10]) [µg/mL],MIC (Enterobacter cloacae) [µg/mL],MIC (Trichophyton rubrum [11]) [µg/mL],MIC (Staphylococcus aureus [12]) [µg/mL],MIC (Escherichia coli [13]) [µg/mL],MIC (Proteus vulgaris) [µg/mL],MIC (Serratia marcescens) [µg/mL],MIC (Staphylococcus aureus [15]) [µg/mL],MIC (Klebsiella pneumoniae [17]) [µg/mL],MIC (Shigella flexneri [18]) [µg/mL],further results
C#CC#CC#C/C=C/C=C/C(C)O (configuration not stated),0.8,12.5,> 50,> 50,0.8,12.5,25,12.5,0.8,1.5,25,> 50,0.4,0.8,25,12.5,> 50,0.8,> 50,–,MIC (Shigella flexneri [2]): 6.2 µg/mL; MIC (Nannizzia gypsea): 0.8 µg/mL; MIC (Aspergillus fumigatus): 6.2 µg/mL; MIC (Trichophyton benhamiae [6]): 0.4 µg/mL; MIC (Cryptococcus neoformans): 1.5 µg/mL; MIC (Candida albicans [14]): 1.5 µg/mL; MIC (Mucor mucedo): 6.2 µg/mL; MIC (Trichophyton rubrum [16]): 0.4 µg/mL
C#CC#CC#CC#CC(O)/C=C/C=C/C (configuration not stated),0.2,0.4,> 25,> 25,< 0.1,3.1,> 25,> 25,< 0.1,3.1,> 25,> 25,< 0.1,0.2,> 25,0.8,> 25,0.2,> 25,0.8,MIC (Nannizzia gypsea): 0.4 µg/mL; MIC (Aspergillus fumigatus): 1.5 µg/mL; MIC (Trichophyton benhamiae [6]): < 0.02 µg/mL; MIC (Cryptococcus neoformans): 0.8 µg/mL; MIC (Candida albicans [14]): 3.1 µg/mL; MIC (Mucor mucedo): 0.2 µg/mL; MIC (Trichophyton rubrum [16]): < 0.02 µg/mL
C#CC#CC#CC#C/C=C/C=C/[C@H](C)O,0.2,0.8,> 25,> 25,0.4,6.2,3.1,3.1,0.4,1.5,3.1,> 25,0.2,0.2,1.5,1.5,1.5,0.2,> 25,0.8,–
C#CC#CC#CC#C/C=C/C=C/[C@@H](C)O,0.1,0.8,> 12.5,> 12.5,0.2,3.1,0.8,0.8,0.2,0.8,1.5,> 12.5,0.2,0.2,0.8,0.8,0.8,0.2,3.1,0.4,–
C#CC#CC#CC#CC1(O)CCCCC1,0.8,6.2,> 25,> 25,–,12.5,25,12.5,1.5,6.2,> 25,> 25,0.8,1.5,25,3.1,> 25,1.5,> 25,6.2,–
C#CC#CC#CC#C/C=C/C=C/C(C)O (racemic),0.2,0.8,> 25,> 25,–,3.1,0.8,0.8,0.8,1.5,0.8,> 25,0.2,0.2,0.8,0.8,0.8,0.2,1.5,0.8,–
